Patent US20250230149A1, “MGLUR5 MODULATING COMPOUNDS, COMPOSITIONS, AND METHODS OF USE” (Allyx Therapeutics, Inc., priority 2022, published 2025)
“Also recorded” adds a separate entry of the source.

Experiments:
in vivo = experiment: in vivo
Method: (§1) Six cohorts of 6 participants each received a single oral dose of Compound 1 in the fasted state at the following dose levels: 10, 40, 70, 100, 150, and 200 mg and then were followed for 7 days; the starting dose of 10 mg was <10% of the 140 mg human equivalent dose (HED) of the rat NOAEL in the GLP 28-day rat study of 15 mg/kg.

CYP2C8 = target: T1, CYP2C8 (Homo sapiens, UniProt P10632); experiment: CYP450 reaction phenotyping in Supersomes, CYP2C8; type: in vitro ADME
T1 construct: purchased
T1 sequence (P10632 whole entry): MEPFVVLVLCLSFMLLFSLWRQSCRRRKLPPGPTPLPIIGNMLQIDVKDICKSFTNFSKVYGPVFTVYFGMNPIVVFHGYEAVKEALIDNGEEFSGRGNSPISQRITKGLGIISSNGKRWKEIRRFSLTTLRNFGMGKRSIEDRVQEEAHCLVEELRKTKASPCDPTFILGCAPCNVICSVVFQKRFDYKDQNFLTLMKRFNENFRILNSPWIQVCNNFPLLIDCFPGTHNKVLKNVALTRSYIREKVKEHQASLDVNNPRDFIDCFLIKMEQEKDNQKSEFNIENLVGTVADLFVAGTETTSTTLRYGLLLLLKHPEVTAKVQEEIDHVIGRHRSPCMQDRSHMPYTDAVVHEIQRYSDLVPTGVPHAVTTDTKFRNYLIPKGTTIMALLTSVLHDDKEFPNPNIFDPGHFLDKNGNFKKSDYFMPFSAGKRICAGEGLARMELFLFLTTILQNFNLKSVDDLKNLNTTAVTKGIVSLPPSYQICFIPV
Method: (§2) In Vitro CYP450 Reaction Phenotyping Study in Supersomes™ Over-Expressing Human CYP Enzymes
(§3) The CYPP450 enzymes involved in the Phase I metabolism of Compound 1 Form A were investigated in vitro. Compound 1 Form A was metabolized by CYP1A2, CYP2D6 and CYP3A4 and with T1/2 values of 64, 14, and 176 min, respectively, and CLint of 0.261, 0.984 and 0.0786 μL/min/pmol CYP, respectively. No evidence of Compound 1 metabolism by CYP2B6, CYP2C8, CYP2C9 and CYP2C19 was observed.

neurons and glia = experiment: Single nuclei transcriptomics; type: in vivo, mice; details: neurons vs glia
Text: Compound 1 (e.g., Form A) prevented Alzheimer's triggered aberrant synaptic signaling while preserving physiological Glu activation. Studies have been conducted to show oral Compound 1 effectively occupied brain mGluR5 sites visualized by [^18F]FPEB PET at doses 250-fold below adverse effect levels in rodent and non-human primate. […] Production of the microglial mediator, C1q, was not altered by Compound 1, but Alzheimer-gene-dependent C1q localization to synapses and synaptic engulfment were prevented. Thus, selective modulation of mGluR5 reversed neuronal gene expression changes to protect synapses from damage by microglial mediators.

dKI mice = experiment: Immunohistochemical staining of SV2A and PSD-95 in APPNLGF/MAPT (dKI) mouse model; type: in vivo; details: 3.75 mg/kg q12 oral, at least 28 days
Method: The objective of this study was to assess synaptic density of control and Amyloid Precursor Protein carrying NL-G-F mutations/Microtubule-associated protein tau (APP^NLGF/MAPT) (dKI—double knock-in) mice before and after treatment with Compound 1. Vehicle (95% PEG-400/5% Solutol) or Compound 1 at 7.5 mg/kg/day (3.75 mg/kg q12) was given to control and dKI mice for at least 28 days by oral administration.
Reduced synaptic density in dKI samples relative to controls was confirmed by immunohistochemical staining of pre- and post-synaptic markers (SV2A and PSD-95) in hippocampal and cortical sections.

C57/BI6J mice = details: single 7.5 mg/kg dose; cited from earlier work
[1] = Phase I open-label single ascending dose study; type: in vivo, healthy male and female participants; details: single oral doses 10-200 mg
Method: This was an open-label, single ascending doses (SAD) study in healthy male and female participants 50 to 80 years of age (inclusive) with no history of cognitive impairment to evaluate the safety of single oral doses of Compound 1.
as §1
Doses were administered in an inpatient setting where all participants were closely monitored prior to discharge on Day 3, with follow-up in-person visits occurring on Days 4 and 7 and a phone call to inquire about general health occurring on Day 5.
Compound 1 administration was carefully monitored within and between cohorts to ensure patient safety and determination of whether to open the next dose cohort was made after all participants in a given cohort had completed the study and all available clinical and safety data were reviewed by the Investigator, Medical Monitor, DSMB, and IND Sponsor.
Following study drug administration, vital signs were monitored every 1 hour for the first 8 hours and then every 3 hours until discharge on Day 3 and an ECG was performed at approximately 6, 24, and 48 hours after drug administration. In order to monitor for changes in consciousness, the Glasgow Coma Scale (GCS) was administered pre-dose and then every 2 hours for the first 8 hours and then every 3 hours until discharge on Day 3. In order to monitor for cognitive or psychiatric side effects, the MOCA, GDS, and NPIQ were administered prior to oral dose administration, again at approximately 6 hours post-dose (approximate peak concentration), and approximately 24 hours post-dose. Adverse events were monitored continuously. Blood was collected for safety laboratory studies prior to drug dose administration and on Days 2 and 3.

APP/PS1 mice = experiment: Immunohistochemical staining of SV2A and PSD-95 in APP/PS1 mouse model with washout; type: in vivo
Method: The objective of this study was to assess synaptic density of control and APP/PS1 mice before and after treatment with Compound 1, and to assess the reversibility of any observed effects following a drug washout period.
Vehicle (95% polyethylene glycol (PEG) 400/5% solutol) or Compound 1 at 7.5 mg/kg/day (3.75 mg/kg q12) was given to control and APP/PS1 mice for at least 28 days by oral administration. A subset of mice stopped treatment after four weeks, then underwent a four-week washout period.
Reduced synaptic density in APP/PS1 samples relative to controls was confirmed by immunohistochemical staining of pre- and post-synaptic markers (SV2A and PSD-95) in hippocampal and cortical sections.

CYP2C9 = target: T2, CYP2C9 (Homo sapiens, UniProt P11712); experiment: CYP450 reaction phenotyping in Supersomes, CYP2C9; type: in vitro ADME
T2 construct: purchased
T2 sequence (P11712 whole entry): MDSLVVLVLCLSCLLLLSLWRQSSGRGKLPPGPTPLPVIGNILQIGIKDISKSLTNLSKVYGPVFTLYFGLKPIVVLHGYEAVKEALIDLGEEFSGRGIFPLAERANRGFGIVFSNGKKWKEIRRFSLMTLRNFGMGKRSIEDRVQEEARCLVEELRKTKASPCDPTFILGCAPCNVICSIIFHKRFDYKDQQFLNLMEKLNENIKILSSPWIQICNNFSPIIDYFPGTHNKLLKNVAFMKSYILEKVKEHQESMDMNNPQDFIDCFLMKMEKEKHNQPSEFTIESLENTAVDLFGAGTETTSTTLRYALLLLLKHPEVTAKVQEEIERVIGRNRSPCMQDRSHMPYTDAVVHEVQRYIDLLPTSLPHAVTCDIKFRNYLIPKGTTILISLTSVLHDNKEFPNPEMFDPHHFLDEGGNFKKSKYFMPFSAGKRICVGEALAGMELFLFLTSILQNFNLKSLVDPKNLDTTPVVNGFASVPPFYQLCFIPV
Method: as §2, §3

O=C1N[C@H](c2cncc(C#Cc3ccccc3)c2)[C@@H](c2ccccc2Cl)O1 [Compound 1, (4R,5R)-5-(2-chlorophenyl)-4-(5-(phenylethynyl)pyridin-3-yl)oxazolidin-2-one]
human equivalent dose (HED) of the rat NOAEL (in vivo): 140 mg
NOAEL at 28 days (in vivo; rat): 15 mg/kg
metabolism by CYP2C8 (CYP2C8): No evidence
normalization of expression patterns (neurons and glia): to a much greater extent in neurons than glia
SV2A and PSD-95 staining in the cerebral cortex, relative to vehicle (dKI mice): significant increases
SV2A staining in hippocampus, relative to vehicle (dKI mice): significant increases
prevention of PAM-induced seizures, shown previously (C57/BI6J mice): prevents seizures
clinically significant changes in consciousness (GCS), cognitive or psychiatric side effects (MOCA, GDS, NPIQ) [1]: no evidence
intensity of TEAEs [1]: mild or moderate
deaths, SAEs, severe TEAEs ([1]; 36 participants): no deaths, SAEs, or severe TEAEs
number of TEAEs considered possibly related to treatment ([1]; 36 participants): 8
tolerability ([1]; fasted, healthy participants 50 to 80 years): well tolerated
SV2A and PSD-95 staining in hippocampal and cortical sections, relative to vehicle (APP/PS1 mice; 3.75 mg/kg q12 oral, at least 28 days): significant increases
rescue of synaptic density after washout (APP/PS1 mice; one month washout period): persists after drug washout; also recorded: preserved
metabolism by CYP2C9 (CYP2C9): No evidence
